Assay results published in patent US8192962B2, “Processes for detecting toxic substances” (Daikin Industries, Ltd., priority 2001, dated 2012).

Tested on: Unknown protein yeast genes
Experiment: DNA chip mRNA expression in yeast, unknown protein yeast genes (Table 1)
Format: cell-based, Saccharomyces cerevisiae S288C
Outline: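 Cells were grown at 25° C. in YPD, treated at logarithmic phase for 2 h with a chemical at a concentration inhibiting growth but not causing death, and compared with untreated cultures. Labeled cDNA was hybridized to a DNA chip carrying all yeast genes, and the expression ratio was taken from scanner fluorescence.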

Measured: The level of expressed mRNA in the presence of chemical substance/The level of expressed mRNA in the absence of chemical substance

manganese ethylenebis(dithiocarbamate) [(8)]
0.8: yeast gene YNL115C, incubated two hours with chemical substance | yeast gene YOL036W, incubated two hours with chemical substance
8.1: yeast gene YLR460C
1.2: yeast gene YKL195W, incubated two hours with chemical substance | yeast gene YLR152C, incubated two hours with chemical substance | yeast gene YMR095C, incubated two hours with chemical substance | yeast gene YNL156C, incubated two hours with chemical substance | yeast gene YNL281W, incubated two hours with chemical substance | yeast gene YPL196W, incubated two hours with chemical substance
1.1: yeast gene YLR054C, incubated two hours with chemical substance | yeast gene YLR149C, incubated two hours with chemical substance | yeast gene YMR067C, incubated two hours with chemical substance | yeast gene YMR191W, incubated two hours with chemical substance | yeast gene YNR068C, incubated two hours with chemical substance | yeast gene YOL047C, incubated two hours with chemical substance | yeast gene YOL082W, incubated two hours with chemical substance | yeast gene YOL117W, incubated two hours with chemical substance | yeast gene YOL131W, incubated two hours with chemical substance | yeast gene YOR019W, incubated two hours with chemical substance
0.6: yeast gene YNL074C, incubated two hours with chemical substance
3.9: yeast gene YMR090W
1.0: yeast gene YLR194C, incubated two hours with chemical substance | yeast gene YLR324W, incubated two hours with chemical substance | yeast gene YLR350W, incubated two hours with chemical substance | yeast gene YMR102C, incubated two hours with chemical substance | yeast gene YMR295C, incubated two hours with chemical substance | yeast gene YPL087W, incubated two hours with chemical substance | yeast gene YPL206C, incubated two hours with chemical substance
1.6: yeast gene YMR316W, incubated two hours with chemical substance | yeast gene YOL071W, incubated two hours with chemical substance | yeast gene YOL162W, incubated two hours with chemical substance
1.8: yeast gene YMR180C, incubated two hours with chemical substance | yeast gene YNL044W, incubated two hours with chemical substance
1.5: yeast gene YMR097C, incubated two hours with chemical substance | yeast gene YOL032W, incubated two hours with chemical substance
1.9: yeast gene YMR184W, incubated two hours with chemical substance
0.7: yeast gene YML117W, incubated two hours with chemical substance | yeast gene YNL305C, incubated two hours with chemical substance | yeast gene YPL222W, incubated two hours with chemical substance
1.3: yeast gene YKR091W, incubated two hours with chemical substance | yeast gene YMR107W, incubated two hours with chemical substance | yeast gene YNL234W, incubated two hours with chemical substance | yeast gene YOL083W, incubated two hours with chemical substance
1.4: yeast gene YLR387C, incubated two hours with chemical substance | yeast gene YMR009W, incubated two hours with chemical substance | yeast gene YPR151C, incubated two hours with chemical substance
3.7: yeast gene YOL150C
0.9: yeast gene YNL092W, incubated two hours with chemical substance | yeast gene YOR197W, incubated two hours with chemical substance | yeast gene YPR023C, incubated two hours with chemical substance
